Source: ChEMBL document CHEMBL1152065, “Synthesis and anti-HIV activity of 9-[(2R-5R)-2,5-dihydro-5-(phosphonomethoxy)-2-furanyl]-2,6-diaminopurine” (Bioorg Med Chem Lett, 1992)
“And” between values parts separate entries of the source, which are not always exact repeats. Equal entries are not always repeated.

What was measured:
MT4 [1] = assay: Compound was evaluated for its ability to Inhibit HIV replication in MT-4 cells; format: functional, cell-based, Homo sapiens
[2] = Concentration of compound affecting viability of the uninfected cells by 50% when assayed in parallel with antiviral assay in MT-4 cells; format: cell-based, MT4; conditions: human, uninfected MT-4 cells; read-out: TC50 (the source's name)
MT4 [3] = assay: The compound was evaluated for its ability to Inhibit HIV replication in MT-4 cells; format: functional, cell-based; conditions: Homo sapiens

SMILES	IC50 (MT4 [1]; Homo sapiens, MT4)	CC50 [2]	IC50 (MT4 [1]; mt4)	IC50 (MT4 [3])
Nc1ncnc2c1ncn2[C@H]1C=C[C@@H](OCP(=O)(O)O)O1	4.3 µM	> 100 µM		
Nc1ncnc2c1ncn2CCOCP(=O)(O)O [ADEFOVIR]		40 µM	6.5 µM and 2 µM	
Nc1nc(N)c2ncn(CCOCP(=O)(O)O)c2n1 [PMEDAP]				1 µM
Nc1nc(N)c2ncn([C@H]3C=C[C@@H](OCP(=O)(O)O)O3)c2n1	82.5 µM	> 100 µM		
